Reference: patent US11136409B2, “Compositions and methods for identification, assessment, prevention, and treatment of AML using USP10 biomarkers and modulators” (Dana-Farber Cancer Institute, Inc., priority 2016, dated 2021)
Where two headings read alike, the source gives them in different places.

Assays:
[1] = tested on: TF-1; experiment: Anti-proliferation, 24 hr treatment (CellTiter-Glo); format: cell-based, human; details: read-out: Anti-proliferation IC50
From the text: (§1) Nomo-1, P31-FUJ, and NB4 were obtained from Dr. Gary Gilliland. MV4, 11 cells were obtained from Dr. Anthony Letai. Hel, K562, THP, U937, TF-1 and K052 cells were purchased from the American Type Culture Collection (ATCC) (Manassas, Va., USA). […] Cell lines were submitted for cell line authentication and were authenticated within 6 months of manuscript preparation through cell line short tandem repeat (STR) profiling (DDC Medical, Fairfield, Ohio and Molecular Diagnostics Laboratory, Dana Farber Cancer Institute). […] PBMCs were generously provided by Dr. Steven Treon and Dr. Guang Yang.
(§2) The CellTiter-Glo® assay (Promega, Madison, Wis.) was used for proliferation studies and carried out according to manufacturer instructions. Cell viability is reported as percentage of control (untreated) cells, and error bars represent the standard error of the mean for each data point.

[2] = tested on: U937; experiment: as above; format: cell-based, human; details: read-out: Anti-proliferation IC50
From the text: as §1, §2

[3] = tested on: OCI-AML5; experiment: as above; format: cell-based, human; details: read-out: Anti-proliferation IC50
From the text: as §1, §2

[4] = tested on: NOMO-1; experiment: as above; format: cell-based, human; details: read-out: Anti-proliferation IC50
From the text: as §1, §2

[5] = tested on: K052; experiment: as above; format: cell-based, human; details: read-out: Anti-proliferation IC50
From the text: as §1, §2

[6] = tested on: MOLM13-luc+; experiment: as above; format: cell-based, human; details: read-out: Anti-proliferation IC50
From the text: as §1, §2

[7] = tested on: MOLM14; experiment: as above; format: cell-based, human; details: read-out: Anti-proliferation IC50
From the text: as §1, §2

[8] = tested on: MV4,11; experiment: as above; format: cell-based, human; details: read-out: Anti-proliferation IC50
From the text: as §1, §2

[9] = tested on: HEL; experiment: as above; format: cell-based, human; details: read-out: Anti-proliferation IC50
From the text: as §1, §2

[10] = tested on: P31; experiment: as above; format: cell-based, human; details: read-out: Anti-proliferation IC50
From the text: as §1, §2

[11] = tested on: NB4-luc+; experiment: as above; format: cell-based, human; details: read-out: Anti-proliferation IC50
From the text: as §1, §2

[12] = tested on: PBMCs; experiment: Treatment of PBMCs from healthy donors with USP10-targeting inhibitors; format: cell-based, human
From the text: as §1, §2

[13] = tested on: AML primagraft (D835Y+, FLT3-ITD+) cells; experiment: Treatment of mutant FLT3-expressing AML primagraft cells ex vivo; format: cell-based, human; details: read-out: IC50 (+/−S.D.) AML primagraft (D835Y+, FLT3-ITD+)
Method: All animal studies were performed according to protocols approved by the Dana-Farber Cancer Institute's Institutional Animal Care and Use Committee. […] Mice were sacrificed on day 21 of treatment. Bone marrow was flushed from mouse femurs, and spleens and livers were dissected and preserved first in formalin, followed 24 hours later by preservation in 70% ethanol. […] All AML primagraft samples used in the studies described herein were obtained through the Public Repository of Xenografts (proxe.org).
as §2

[14] = molecular target: T1, human USP10 (residues 376-798) (Homo sapiens, UniProt Q14694); experiment: In vitro USP10 activity assay (Ubiquitin-AMC); format: biochemical; details: biochemical assay, FIG. 13B
T1 construct: A construct of human USP10 covering residues 376-798 in the pET28a vector; His-tag (cleaved yes); made in house; host or cells: E. coli BL21 (DE3)
Method: Protein expression and purification. A construct of human USP10 covering residues 376-798 in the pET28a vector was over-expressed in E. coli BL21 (DE3) in TB medium in the presence of […] of kanamycin. Cells were grown at 37° C. to an OD of 0.8, cooled to 17° C., induced with 500 μM isopropyl-1-thio-D-galactopyranoside, incubated overnight at 17° C., collected by centrifugation, and stored at −80° C. Cell pellets were sonicated in buffer A (50 mM HEPES (pH 7.5), 300 mM NaCl, 10% glycerol, 10 mM Imidazole, and 3 mM BME) and the resulting lysate was centrifuged at 30,000×g for 30 min. Ni-NTA beads (Qiagen) were mixed with lysate supernatant for 30 min and washed with buffer A. Beads were transferred to an FPLC-compatible column and the bound protein was washed with 15% buffer B (50 mM HEPES (pH 7.5), 300 mM NaCl, 10% glycerol, 300 mM Imidazole, and 3 mM BME) and eluted with 100% buffer B. Thrombin was added to the eluted protein and incubated at 4° C. overnight. The sample was then passed through a HiPrep 26/10 desalting column (GE Healthcare) pre-equilibrated with buffer A without imidazole, and the eluted protein was subjected to a second Ni-NTA step to remove His-tag and Thrombin. The eluent was concentrated and passed through a Superdex® 200 10/300GL column (GE Healthcare) in a buffer containing 20 mM HEPES (pH 7.5), 150 mM NaCl, and 1 mM DTT. Fractions were pooled, concentrated to 20 mg/ml, and frozen at −80° C.
In vitro USP10 activity assay. Recombinant USP10, residues 376-798, was tested for its activity in a Ubiquitin-AMC assay in presence or absence of inhibitors. For this assay, 10 nM USP10 were pre-incubated with different concentrations of inhibitors or DMSO as a control in 50 mM HEPES pH7.6, 0.5 mM EDTA, 11 uM ovalbumin, and 5 mM DTT. The reaction was incubated for 6 hours at room temperature prior to the addition of 2 uM Ubiquitin-AMC (Boston Biochem) substrate. The initial rate of the reaction was measured by collecting fluorescence data at one minute intervals over 30-minute period using a CLARIOstar® fluorescence plate reader at excitation and emission wavelength of 345 and 445 nm, respectively. The calculated initial rate values were plotted against inhibitor concentrations to determine IC50 values.

[15] = 24 hr treatment, TF-1 (FLT3 null)
[16] = 24 hr treatment, U937 (FLT3 wt or null)
[17] = 24 hr treatment, OCI-AML5 (FLT3 wt or null)
[18] = 24 hr treatment, NOMO-1 (FLT3 wt or null)
[19] = 24 hr treatment, K052 (FLT3 wt or null)
[20] = 24 hr treatment, MOLM13-luc+ (FLT3-ITD)
[21] = 24 hr treatment, MOLM14 (FLT3-ITD)
[22] = 24 hr treatment, MV4,11 (FLT3-ITD)
[23] = 24 hr treatment, HEL (FLT3 wt or null)
[24] = 24 hr treatment, P31 (FLT3 wt or null)
[25] = 24 hr treatment, NB4-luc+ (FLT3 wt or null)
[26] = 24 hr assay, PBMC#1, read-out: IC50 (+/−S.D.) PBMC#1
[27] = 24 hr assay, PBMC#2, read-out: IC50 (+/−S.D.) PBMC#2
[28] = 72 hr assay, PBMC#1, read-out: IC50 (+/−S.D.) PBMC#1
[29] = 72 hr assay, PBMC#2, read-out: IC50 (+/−S.D.) PBMC#2

T1 sequence (Q14694 376-798): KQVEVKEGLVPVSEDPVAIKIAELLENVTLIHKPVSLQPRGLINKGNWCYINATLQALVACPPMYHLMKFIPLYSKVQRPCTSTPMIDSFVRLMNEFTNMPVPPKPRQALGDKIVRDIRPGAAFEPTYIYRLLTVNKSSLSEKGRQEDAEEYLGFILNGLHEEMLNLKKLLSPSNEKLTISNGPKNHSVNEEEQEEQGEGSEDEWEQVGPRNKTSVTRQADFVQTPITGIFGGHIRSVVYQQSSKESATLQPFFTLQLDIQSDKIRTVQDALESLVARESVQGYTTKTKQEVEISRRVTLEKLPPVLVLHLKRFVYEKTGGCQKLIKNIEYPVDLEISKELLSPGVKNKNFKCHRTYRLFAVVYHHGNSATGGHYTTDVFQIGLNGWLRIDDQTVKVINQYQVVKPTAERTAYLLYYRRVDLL

SMILES	IC50 [1, 15] [µM]	IC50 [2, 16] [µM]	IC50 [3, 17] [µM]	IC50 [4, 18] [µM]	IC50 [5, 19] [µM]	IC50 [6, 20] [µM]	IC50 [7, 21] [µM]	IC50 [8, 22] [µM]	IC50 [9, 23] [µM]	IC50 [10, 24] [µM]	IC50 [11, 25] [µM]	IC50 [12, 26] [µM]	IC50 [12, 27] [µM]	IC50 [12, 28] [µM]	IC50 [12, 29] [µM]	IC50 ([13]; 24 hr assay) [µM]	IC50 ([13]; 72 hr assay) [µM]	USP10 inhibition compared with HBX19818 [14]	further results
O=C(NCCCN1CCN(Cc2ccccc2)CC1)c1ccc2nc3c(c(Cl)c2c1)CCCC3 [C598-0563]	10	13.7	17	10.7	14.5	8.8	9.9	9.7	19.6	10.6	13.6	22.9	44.4	15.6	7.9	12.2	2.8	comparably to HBX19818	
CCCN(CCC)CCCNC(=O)c1ccc2c(Cl)c3c(nc2c1)CCCC3 [C598-0466]	10.7	12.9	8.6	8.3	11.6	2.9	5.2	4.1	16.8	13.9	10.2	10.5	10.5	4.8	3.1	4.1	0.6	more potent	
CN(CCCNC(=O)c1ccc2nc3c(c(Cl)c2c1)CCCC3)Cc1ccccc1 [HBX19818, reference compound]																			IC50 ([1]; Homo sapiens, TF-1, 24 h): 12.8 µM; IC50 ([2]; Homo sapiens, U-937, 24 h): 20.7 µM; IC50 ([3]; Homo sapiens, OCI-AML-5, 24 h): 17.9 µM; IC50 ([4]; Homo sapiens, NOMO-1, 24 h): 16.1 µM; IC50 ([5]; Homo sapiens, K052, 24 h): 16.6 µM; IC50 ([6]; Homo sapiens, 24 h): 4.4 µM; IC50 ([7]; Homo sapiens, MOLM-14, 24 h): 9.6 µM; IC50 ([8]; Homo sapiens, MV4-11, 24 h): 8.1 µM; IC50 ([9]; Homo sapiens, HEL, 24 h): 25.7 µM; IC50 ([10]; Homo sapiens, 24 h): 18.2 µM; IC50 ([11]; Homo sapiens, 24 h): 16.4 µM; IC50 ([12]; Homo sapiens, PBMC, 24 h, read-out: IC50 (+/−S.D.) PBMC#1): 25.5 µM; IC50 ([12]; Homo sapiens, PBMC, 24 h, read-out: IC50 (+/−S.D.) PBMC#2): 24.1 µM; IC50 ([12]; Homo sapiens, PBMC, 72 h, read-out: IC50 (+/−S.D.) PBMC#1): 12.4 µM; IC50 ([12]; Homo sapiens, PBMC, 72 h, read-out: IC50 (+/−S.D.) PBMC#2): 7.3 µM; IC50 ([13]; Homo sapiens, 24 hr assay): 9.8 µM; IC50 ([13]; Homo sapiens, 72 hr assay): 1.9 µM
CCN(CCCNC(=O)c1ccc2nc3c(c(Cl)c2c1)CCC3)Cc1ccccc1 [C673-0105]	12.5	16.2	19.5	12.7	23.5	7.9	10.1	7.5	34.4	29	24.5	17.2	17.4	10	7.3	8.5	3.1	comparably to HBX19818	
